What all share (assay): relative viability (nuclei count vs DMSO), 5 days (fraction); higher = more cells survive
Compound in the experiment “YM155 + Lapatinib”: COCC[n+]1c2c(n(Cc3cnccn3)c1C)C(=O)c1ccccc1C2=O [YM155] + CS(=O)(=O)CCNCc1ccc(-c2ccc3ncnc(Nc4ccc(OCc5cccc(F)c5)c(Cl)c4)c3c2)o1 [Lapatinib] (partner 2 µM)
The procedure, abridged:
(§1)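 One day after seeding in 1536-well plates, lung cancer cell lines were dosed by pin tool. Dosing was either single-drug or a fixed anchor-drug dose plus five library-drug doses (not always all listed) in √10 steps. After 5 days, nuclei were stained in one fix-and-stain step and counted on 4× images, and relative viability is the nuclei count of treated wells over that of vehicle wells, given as the median of duplicate plates.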

Compound in the experiment “YM155 + Alpelisib”: COCC[n+]1c2c(n(Cc3cnccn3)c1C)C(=O)c1ccccc1C2=O [YM155] + Cc1nc(NC(=O)N2CCC[C@H]2C(N)=O)sc1-c1ccnc(C(C)(C)C(F)(F)F)c1 [Alpelisib] (partner 2 µM)
The procedure, abridged:
as §1

Compound in the experiment “Quizartinib + Vorinostat”: CC(C)(C)c1cc(NC(=O)Nc2ccc(-c3cn4c(n3)sc3cc(OCCN5CCOCC5)ccc34)cc2)no1 [Quizartinib] + O=C(CCCCCCC(=O)Nc1ccccc1)NO [Vorinostat] (partner 1 µM)
The procedure, abridged: as §1

Compound in the experiment “Quizartinib + Decitabine”: CC(C)(C)c1cc(NC(=O)Nc2ccc(-c3cn4c(n3)sc3cc(OCCN5CCOCC5)ccc34)cc2)no1 [Quizartinib] + Nc1ncn([C@H]2C[C@H](O)[C@@H](CO)O2)c(=O)n1 [Decitabine] (partner 2 µM)
In outline: as §1

This note sets out measurements from the supplement of paper PMC10307832.

Consider PC-14, for which the relative viability in the experiment with YM155 + Lapatinib (first compound 0.002 µM) is 0.306; with YM155 + Lapatinib (first compound 0.006325 µM) it was 0.295; with YM155 + Lapatinib (first compound 0.02 µM) it was 0.297; with YM155 + Lapatinib (first compound 0.06325 µM) it was 0.355; with YM155 + Alpelisib (first compound 0.002 µM), 1; with YM155 + Alpelisib (first compound 0.006325 µM), 1.02. In addition, the relative viability with YM155 + Alpelisib (first compound 0.02 µM) turned out to be 0.953; in the experiment with YM155 + Alpelisib (first compound 0.06325 µM), 0.811; with Quizartinib + Vorinostat (first compound 0.001 µM), 0.707; with Quizartinib + Vorinostat (first compound 0.003162 µM), 0.693; in the experiment with Quizartinib + Vorinostat (first compound 0.01 µM), 0.858; with Quizartinib + Vorinostat (first compound 0.1 µM), 0.858. Besides, the relative viability with Quizartinib + Decitabine (first compound 0.001 µM) is 0.218; with Quizartinib + Decitabine (first compound 0.003162 µM), 0.198; with Quizartinib + Decitabine (first compound 0.01 µM), 0.225; with Quizartinib + Decitabine (first compound 0.03162 µM), 0.144; in the experiment with Quizartinib + Decitabine (first compound 0.1 µM), 0.324.

In the case of RERF-LC-KJ, the relative viability is 0.755 with YM155 + Lapatinib (first compound 0.002 µM); 0.853 in the experiment with YM155 + Lapatinib (first compound 0.006325 µM); 0.88 with YM155 + Lapatinib (first compound 0.02 µM); 0.821 with YM155 + Lapatinib (first compound 0.06325 µM); 0.806 in the experiment with YM155 + Alpelisib (first compound 0.002 µM); 0.705 in the experiment with YM155 + Alpelisib (first compound 0.006325 µM). Moreover, the relative viability with YM155 + Alpelisib (first compound 0.02 µM) was found to be 0.771; with YM155 + Alpelisib (first compound 0.06325 µM), 0.842; in the experiment with Quizartinib + Vorinostat (first compound 0.001 µM), 0.58; in the experiment with Quizartinib + Vorinostat (first compound 0.003162 µM) it was 0.707; with Quizartinib + Vorinostat (first compound 0.01 µM), 0.751; with Quizartinib + Vorinostat (first compound 0.03162 µM), 0.53. The relative viability came to 0.691 with Quizartinib + Vorinostat (first compound 0.1 µM); 0.628 with Quizartinib + Decitabine (first compound 0.001 µM); 0.73 in the experiment with Quizartinib + Decitabine (first compound 0.003162 µM); 0.694 in the experiment with Quizartinib + Decitabine (first compound 0.01 µM); 0.429 with Quizartinib + Decitabine (first compound 0.03162 µM); 0.628 with Quizartinib + Decitabine (first compound 0.1 µM).

Turning to SK-LU-1, the relative viability in the experiment with YM155 + Lapatinib (first compound 0.002 µM) was 0.835; in the experiment with YM155 + Lapatinib (first compound 0.006325 µM) it was 0.85; in the experiment with YM155 + Lapatinib (first compound 0.02 µM), 0.971; with YM155 + Lapatinib (first compound 0.06325 µM), 0.653; in the experiment with YM155 + Alpelisib (first compound 0.002 µM), 1.03; with YM155 + Alpelisib (first compound 0.006325 µM), 1.09. Moreover, the relative viability with YM155 + Alpelisib (first compound 0.02 µM) came to 1.07; with YM155 + Alpelisib (first compound 0.06325 µM), 1.01; with Quizartinib + Vorinostat (first compound 0.001 µM), 0.766; with Quizartinib + Vorinostat (first compound 0.003162 µM), 0.716; with Quizartinib + Vorinostat (first compound 0.01 µM) it was 0.896; with Quizartinib + Vorinostat (first compound 0.03162 µM), 0.835. In addition, the relative viability was 0.892 with Quizartinib + Vorinostat (first compound 0.1 µM); 0.592 with Quizartinib + Decitabine (first compound 0.001 µM); 0.631 with Quizartinib + Decitabine (first compound 0.003162 µM); 0.756 with Quizartinib + Decitabine (first compound 0.01 µM); 0.717 in the experiment with Quizartinib + Decitabine (first compound 0.03162 µM); 0.66 with Quizartinib + Decitabine (first compound 0.1 µM).

Turning to SK-MES-1, the relative viability amounted to 0.468 with YM155 + Lapatinib (first compound 0.002 µM); 0.476 with YM155 + Lapatinib (first compound 0.006325 µM); 0.442 with YM155 + Lapatinib (first compound 0.02 µM); 0.473 with YM155 + Lapatinib (first compound 0.06325 µM); 0.823 with YM155 + Alpelisib (first compound 0.002 µM); 0.905 with YM155 + Alpelisib (first compound 0.006325 µM). Further, the relative viability came out at 1.05 with YM155 + Alpelisib (first compound 0.02 µM); 0.715 with YM155 + Alpelisib (first compound 0.06325 µM); 1.01 with Quizartinib + Vorinostat (first compound 0.001 µM); 1 in the experiment with Quizartinib + Vorinostat (first compound 0.003162 µM); 1.2 with Quizartinib + Vorinostat (first compound 0.01 µM); 0.586 with Quizartinib + Vorinostat (first compound 0.03162 µM). Besides, the relative viability with Quizartinib + Vorinostat (first compound 0.1 µM) amounted to 1.03; in the experiment with Quizartinib + Decitabine (first compound 0.001 µM), 0.414; with Quizartinib + Decitabine (first compound 0.003162 µM), 0.325; in the experiment with Quizartinib + Decitabine (first compound 0.01 µM), 0.446; in the experiment with Quizartinib + Decitabine (first compound 0.1 µM) it was 0.322.

With SW 1573, the relative viability in the experiment with YM155 + Lapatinib (first compound 0.002 µM) amounted to 1.1; with YM155 + Lapatinib (first compound 0.006325 µM), 1.01; in the experiment with YM155 + Lapatinib (first compound 0.02 µM) it was 1.21; with YM155 + Lapatinib (first compound 0.06325 µM), 0.858; with YM155 + Alpelisib (first compound 0.002 µM), 0.73; with YM155 + Alpelisib (first compound 0.006325 µM), 0.657. For the same cell line, the relative viability in the experiment with YM155 + Alpelisib (first compound 0.02 µM) amounted to 0.875; in the experiment with YM155 + Alpelisib (first compound 0.06325 µM), 0.723; with Quizartinib + Vorinostat (first compound 0.001 µM), 0.556; in the experiment with Quizartinib + Vorinostat (first compound 0.003162 µM) it was 0.715; with Quizartinib + Vorinostat (first compound 0.01 µM), 0.684; in the experiment with Quizartinib + Vorinostat (first compound 0.1 µM) it was 1.27. Also, the relative viability in the experiment with Quizartinib + Decitabine (first compound 0.001 µM) came out at 0.513; with Quizartinib + Decitabine (first compound 0.003162 µM), 0.476; in the experiment with Quizartinib + Decitabine (first compound 0.01 µM) it was 0.67; with Quizartinib + Decitabine (first compound 0.1 µM), 0.625.

In the case of UMC-11, the relative viability with YM155 + Lapatinib (first compound 0.002 µM) worked out at 0.846; with YM155 + Lapatinib (first compound 0.006325 µM) it was 0.964; with YM155 + Lapatinib (first compound 0.02 µM), 0.994; in the experiment with YM155 + Lapatinib (first compound 0.06325 µM), 0.93; in the experiment with YM155 + Alpelisib (first compound 0.002 µM), 1.03; with YM155 + Alpelisib (first compound 0.006325 µM), 1.06. The relative viability with YM155 + Alpelisib (first compound 0.02 µM) was determined as 1; with YM155 + Alpelisib (first compound 0.06325 µM), 1.08; in the experiment with Quizartinib + Vorinostat (first compound 0.001 µM), 0.376; with Quizartinib + Vorinostat (first compound 0.003162 µM), 0.333; with Quizartinib + Vorinostat (first compound 0.01 µM) it was 0.336; with Quizartinib + Vorinostat (first compound 0.03162 µM), 0.338. In addition, the relative viability in the experiment with Quizartinib + Vorinostat (first compound 0.1 µM) worked out at 0.358; in the experiment with Quizartinib + Decitabine (first compound 0.003162 µM) it was 0.708; with Quizartinib + Decitabine (first compound 0.01 µM), 0.638; in the experiment with Quizartinib + Decitabine (first compound 0.03162 µM), 0.485; with Quizartinib + Decitabine (first compound 0.1 µM) it was 0.691.
